In ChEMBL document CHEMBL5550185, “Targeting hTERT Promoter G-Quadruplex DNA Structures with Small-Molecule Ligand to Downregulate hTERT Expression for Triple-Negative Breast Cancer Therapy” (J Med Chem, 2024):
Activity calls are given as the source filed them. No cut-off for these calls is given here.

How the values were obtained:
[1] = Toxicity in female Balb/c nude mouse xenografted with human MDA-MB-231 cells assessed as change in blood urea nitrogen level at 2 to 5 mg/kg, iv administered via tail vein every 2 days for 16 days; type: organism-based; settings: in vivo, 384 h, dose 2-5 mg/kg, time 16 day
[2] = Toxicity in female Balb/c nude mouse xenografted with human MDA-MB-231 cells assessed as change in WBC count at 2 to 5 mg/kg, iv administered via tail vein every 2 days for 16 days; type: organism-based; settings: in vivo, 384 h, dose 2-5 mg/kg, time 16 day
[3] = Selectivity ratio of binding affinity to human TERT G4 DNA to binding affinity to Telo21 G4 DNA (unknown origin)
[4] = Toxicity in female Balb/c nude mouse xenografted with human MDA-MB-231 cells assessed as change in uric acid level at 2 to 5 mg/kg, iv administered via tail vein every 2 days for 16 days; type: organism-based; settings: in vivo, 384 h, dose 2-5 mg/kg, time 16 day
[5] = Selectivity ratio of binding affinity to human TERT G4 DNA to binding affinity to Ds26 duplex DNA (unknown origin)
Quadruplex DNA [6] = assay: Binding affinity to human TERT G4 DNA in Tris-HCl buffer at pH 7.4 assessed as increase in CD signal at 5 to 100 uM by circular dichroism spectrometer; type: nucleic-acid assay; settings: dose 5-100 µM
HepG2 = assay: Cytotoxicity against telomerase-positive human HepG2 cells assessed as inhibition of cell growth incubated for 48 hrs by MTT assay; type: functional, cell-based; settings: HepG2, 48 h
MDA-MB-231 [7] = assay: Induction of mitochondrial dysfunction in human MDA-MB-231 cells assessed as downregulation of mitochondrial respiratory complex II-SDHB expression incubated for 48 hrs by Western blot analysis; type: functional, cell-based; settings: dose 0-1.5 µM
MDA-MB-231 [8] = assay: Antitumor activity against human MDA-MB-231 cells xenografted in female Balb/c mouse assessed as inhibition of tumor cell proliferation at 5 mg/kg, iv administered via tail vein every 2 days for 16 days by TUNEL assay; type: functional, organism-based; settings: time 16.0 day
Quadruplex DNA [9] = assay: Binding affinity to G4 DNA in telomerase-positive live human MDA-MB-231 cells assessed as colocalization of BG4 and compound at 5 uM incubated for 2 hrs by immunofluorescence assay; type: cell-based
[10] = Upregulation of MAP1LC3B gene expression in human MDA-MB-231 cells assessed as fold change at 1 uM measured after 48 hrs by RNA-seq analysis relative to control; type: functional
Quadruplex DNA [11] = assay: Binding affinity to Bcl-2 G4 DNA (unknown origin) assessed as change in gibbs free energy at 400 uM by ITC analysis; type: nucleic-acid assay
MDA-MB-231 [12] = assay: Induction of autophagy in human MDA-MB-231 cells assessed as upregulation of BNIP3L/Nix protein expression at 0 to 1.5 uM measured after 48 hrs by Western blot analysis; type: functional, cell-based; settings: dose 0-1.5 µM
[13] = Cytotoxicity against human HK-2 cells assessed as inhibition of cell growth incubated for 48 hrs by MTT assay; type: toxicity, cell-based
Quadruplex DNA [14] = assay: Binding affinity to CKIT-2 G4 DNA (unknown origin) assessed as change in enthalpy at 400 uM by ITC analysis; type: nucleic-acid assay
[15] = Upregulation of IRS1 gene expression in human MDA-MB-231 cells assessed as fold change at 1 uM measured after 48 hrs by RNA-seq analysis relative to control; type: functional
A549 = assay: Cytotoxicity against telomerase-positive human A549 cells assessed as inhibition of cell growth incubated for 48 hrs by MTT assay; type: functional, cell-based; settings: A549, 48 h
[16] = Selectivity ratio of binding affinity to human TERT G4 DNA to binding affinity to Bcl-2 G4 DNA (unknown origin)
[17] = Toxicity in female Balb/c nude mouse xenografted with human MDA-MB-231 cells assessed as change in lymphocyte count at 2 to 5 mg/kg, iv administered via tail vein every 2 days for 16 days; type: organism-based; settings: in vivo, 384 h, dose 2-5 mg/kg, time 16 day
[18] = Toxicity in female Balb/c nude mouse xenografted with human MDA-MB-231 cells assessed as change in creatinine level at 2 to 5 mg/kg, iv administered via tail vein every 2 days for 16 days; type: organism-based; settings: in vivo, 384 h, dose 2-5 mg/kg, time 16 day
[19] = Upregulation of CCNB1 gene expression in human MDA-MB-231 cells assessed as fold change at 1 uM measured after 48 hrs by RNA-seq analysis relative to control; type: functional
MDA-MB-231 [20] = assay: Downregulation of DNAPKcs transcription level in human MDA-MB-231 cells at 1 uM measured after 48 hrs by RNA-seq analysis; type: functional, cell-based
[21] = Upregulation of CALML6 gene expression in human MDA-MB-231 cells assessed as fold change at 1 uM measured after 48 hrs by RNA-seq analysis relative to control; type: functional
MDA-MB-231 [22] = assay: Downregulation of ND6 gene expression in human MDA-MB-231 cells at 1 uM measured after 48 hrs by RNA-seq analysis; type: functional, cell-based
MDA-MB-231 [23] = assay: Downregulation of p62 protein expression in human MDA-MB-231 cells at 0 to 1.5 uM measured after 48 hrs by Western blot analysis; type: functional, cell-based; settings: dose 0-1.5 µM
[24] = Upregulation of IL-1A gene expression in human MDA-MB-231 cells assessed as fold change at 1 uM measured after 48 hrs by RNA-seq analysis relative to control; type: functional
[25] = Toxicity in female Balb/c nude mouse xenografted with human MDA-MB-231 cells assessed as pathological changes in spleen at 2 to 5 mg/kg, iv administered via tail vein every 2 days for 16 days by H and E staining based analysis; type: organism-based; settings: in vivo, 384 h, dose 2-5 mg/kg, time 16 day
Quadruplex DNA [26] = assay: Binding affinity to human TERT G4 DNA in Tris-HCl buffer at pH 7.4 assessed as fold increase in fluorescence signal at 5 uM by fluorescence spectrometer relative to control; type: nucleic-acid assay
Quadruplex DNA [27] = assay: Binding affinity to CKIT-2 G4 DNA (unknown origin) assessed as thermal stability by measuring change in melting temperature at 400 uM […]; type: nucleic-acid assay
MDA-MB-231 [28] = assay: Inhibition of hTERT expression in human MDA-MB-231 cells assessed as reduction in pink foci in cytoplasm at 0.5 uM incubated for 48 hrs in presence of TBHP at 200 uM by immunofluorescence analysis; type: functional, cell-based
[29] = Toxicity in female Balb/c nude mouse xenografted with human MDA-MB-231 cells assessed as signs of poor health at 2 to 5 mg/kg, iv administered via tail vein every 2 days for 16 days; type: organism-based; settings: in vivo, 384 h, dose 2-5 mg/kg, time 16 day
Homo sapiens = organism: Homo sapiens; assay: Binding affinity to antisense i-hTERT DNA assessed as change in enthalpy at 400 uM by ITC analysis

In the case of `C[n+]1c(/C=C/c2c[nH]c3ccccc23)cc(/C=C2\Sc3ccccc3N2CCCN2CCC(C(F)(F)F)CC2)c2ccccc21.[I-]`, the Activity [1] is reported as “Non-Toxic”, the Activity [2] is reported as “Non-Toxic” and the Selectivity ratio [3] is reported as 2. The Activity [4] was “Non-Toxic”, the Selectivity ratio [5] was 3 and the Activity (Quadruplex DNA [6]) was “Active”. For the same compound, the IC50 (HepG2) was 2900 nM, the Activity (MDA-MB-231 [7]) was “Dose-Dependent Effect” and the Activity (MDA-MB-231 [8]) was “Active”. The Activity (Quadruplex DNA [9]) was “Active”, the “fold change (FC)” value [10] was over 2 and the deltaG (Quadruplex DNA [11]) was -7.43 kcal/mol. For the same compound, the Activity (MDA-MB-231 [12]) was “Active”, the IC50 at 48 h [13] was 9.4 µM and the deltaH (Quadruplex DNA [14]) was -1.59 kcal/mol. The “fold change (FC)” value [15] was over 2, the IC50 (A549) was 2100 nM and the Selectivity ratio [16] was 2. The Activity [17] was “Non-Toxic”, the Activity [18] was “Non-Toxic” and the “fold change (FC)” value [19] was over 2. The Activity (MDA-MB-231 [20]) was “Active”, the “fold change (FC)” value [21] was over 2 and the Activity (MDA-MB-231 [22]) was “Active”. The Activity (MDA-MB-231 [23]) was “Active”, the “fold change (FC)” value [24] was over 2 and the Activity [25] was “Non-Toxic”. For the same compound, the fold change (FC) (Quadruplex DNA [26]) was 29, the ΔTm (Quadruplex DNA [27]) was 2.45 °C and the inhibition (MDA-MB-231 [28]) was “Active”. For the same compound, the Activity [29] was “Non-Toxic” and the deltaH (Homo sapiens) was -1.2 kcal/mol.
